Common to all, as to format: in vivo
Test [1] concerns Yellow Fever Mosquito (Aedes aegypti, AEDSAE). The test can be described thus: Bioassay on Yellow Fever Mosquito (YFM), 96-well plate larval assay. The note with it: for YFM (Biological Results, rating): Species YFM (Yellow Fever Mosquito); for YFM rating: Yellow Fever Mosquito, 96-well plate larval assay. As for the experimental part: Certain molecules disclosed in this document were tested against YFM using procedures described in the following paragraph. In the reporting of the results, the “GPA & YFM Rating Table” was used (See Table Section).
Master plates containing 400 μg of a molecule dissolved in 100 μL of dimethyl sulfoxide (DMSO) (equivalent to a 4000 ppm solution) are used. A master plate of assembled molecules contains 15 μL per well. To this plate, 135 μL of a 90:10 water/acetone mixture is added to each well. A robot is programmed to dispense 15 μL aspirations from the master plate into an empty 96-well shallow plate (“daughter” plate). There are 6 reps (“daughter” plates) created per master. The created “daughter” plates are then immediately infested with YFM larvae.
The day before plates are to be treated, mosquito eggs are placed in Millipore water containing liver powder to begin hatching (4 g. into 400 mL). After the “daughter” plates are created using the robot, they are infested with 220 μL of the liver powder/larval mosquito mixture (about 1 day-old larvae). After plates are infested with mosquito larvae, a non-evaporative lid is used to cover the plate to reduce drying. Plates are held at room temperature for 3 days prior to grading. After 3 days, each well is observed and scored based on mortality. The results are indicated in the table entitled “Table ABC: Biological Results” (See Table Section).

For test [2], the system named is Beet Armyworm (Spodoptera exigua, LAPHEG). The test can be described thus: Bioassay on Beet Armyworm (BAW), 128-well diet tray assay. In short, it runs like this: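 Second-instar larvae, one to five per well, placed on artificial diet surface-treated with 50 μg/cm^2 compound applied in 90:10 acetone-water and dried. Held 5–7 days at 25° C., 14:10 light-dark. Percent mortality recorded per well and averaged over eight wells.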

Test [3] deals with Cabbage Looper (Trichoplusia ni, TRIPNI). The experiment in a line: Bioassay on Cabbage Looper (CL), 128-well diet tray assay. The note with it: Trichoplusia ni. The method, boiled down: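 Diet-incorporation-free surface assay: 50 μg/cm^2 compound in acetone-water (90:10), dried on diet; 1–5 2nd-instar larvae/well; 8 wells; vented cover; 25° C., 14:10 L:D, 5–7 d; % mortality averaged over wells.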

Where [4] appears, read: Species BAW (Beet Armyworm), read-out: BAW (Biological Results, rating).
[5] abbreviates: Species CL (Cabbage Looper), read-out: CL (Biological Results, rating).
[6] abbreviates: Beet Armyworm, 128-well diet tray assay, read-out: BAW rating.
The mark [7] stands for this setting: Cabbage Looper, 128-well diet tray assay, read-out: CL rating.

Each structure is given as a SMILES string. Read-outs that look alike come from different tables or passages of the source.

As for `O=C(Nc1ncc(F)cc1F)c1cc(NC(=O)[C@H]2[C@H](c3cc(Cl)cc(Cl)c3)C2(Cl)Cl)ccc1Cl` [F309, 2-Chloro-5-((1R,3R)-2,2-dichloro-3-(3,5-dichlorophenyl)cyclopropane-1-carboxamido)-N-(3,5-difluoropyridin-2-yl)benzamide], the “YFM (Biological Results, rating)” value in test [1] is reported as “A (80-100)”.
Turning to `O=C(Nc1cc(F)cc([N+](=O)[O-])c1)c1cc(NC(=O)[C@H]2[C@H](c3cc(Cl)cc(Cl)c3)C2(Cl)Cl)ccc1Cl` [F415, 2-Chloro-5-((1R,3R)-2,2-dichloro-3-(3,5-dichlorophenyl)cyclopropane-1-carboxamido)-N-(3-fluoro-5-nitrophenyl)benzamide], the YFM rating result in test [1] is recorded as “A (80-100)”.
Consider `O=C(Nc1ccc(F)cc1)c1cc(NC(=O)[C@H]2[C@H](c3cc(Cl)cc(Cl)c3)C2(Cl)Cl)c(Cl)cc1Cl` (relative stereo) [F250, trans-2,4-Dichloro-5-(2,2-dichloro-3-(3,5-dichlorophenyl)cyclopropane-1-carboxamido)-N-(4-fluorophenyl)benzamide], for which the pest or weed control at 50 µg/cm2 in test [2] (setting [4]) was 0 to 50%. Further, the “YFM (Biological Results, rating)” value in test [1] is “B (More than 0-Less than 80)”.
Take `N#Cc1ccc(NC(=O)c2cc(NC(=O)C3C(c4cc(Cl)cc(Cl)c4)C3(Cl)Cl)ccc2Cl)cc1Cl` (stereo not drawn) [PF120, 2-Chloro-N-(3-chloro-4-cyanophenyl)-5-(trans)-2,2-dichloro-3-(3,5-dichlorophenyl)cyclopropane-1-carboxamido)benzamide]: the YFM rating entry in test [1] was “A (80-100)”.
The same measure, in the same setting: the same measure for `O=C(Nc1ccc(Cl)nn1)c1cc(NC(=O)[C@H]2[C@H](c3cc(Cl)cc(Cl)c3)C2(Cl)Cl)ccc1Cl` (relative stereo) [PF148, trans-2-Chloro-N-(6-chloropyridazin-3-yl)-5-(2,2-dichloro-3-(3,5-dichlorophenyl)cyclopropane-1-carboxamido)benzamide]: “A (80-100)”.
Still for that read-out and setting: to `O=C(Nc1ccc(F)cc1F)c1cc(NC(=O)C2C(c3cc(F)c(F)c(F)c3)C2(Cl)Cl)ccc1Cl` (stereo not drawn) [F582, 2-Chloro-5-cis-(2,2-dichloro-3-(3,4,5-trifluorophenyl)cyclopropane-1-carboxamido)-N-(2,4-difluorophenyl)benzamide] belongs “A (80-100)”.
For `Cc1cc(N(C)C(=O)OC(C)(C)C)ccc1NC(=O)c1cc(NC(=O)[C@H]2[C@H](c3cc(Cl)c(Cl)c(Cl)c3)C2(Cl)Cl)ccc1Cl` (relative stereo) [F218, trans-tert-Butyl-(4-(2-chloro-5-(2,2-dichloro-3-(3,4,5-trichlorophenyl)cyclopropane-1-carboxamido)benzamido)-3-methylphenyl)(methyl)carbamate], the pest or weed control at 50 µg/cm2 in test [2] (setting [4]) and in test [3] (setting [5]) was 50 to 100% in each case.
Regarding `C[S+]([O-])c1ccc(NC(=O)[C@H]2[C@H](c3cc(Cl)cc(Cl)c3)C2(Cl)Cl)cc1C(=O)Nc1ccc(F)cc1` (relative stereo) [F158, trans-5-(2,2-dichloro-3-(3,5-dichlorophenyl)cyclopropane-1-carboxamido)-N-(4-fluorophenyl)-2-(methylsulfinyl)benzamide], the pest or weed control at 50 µg/cm2 in test [2] (setting [4]) and in test [3] (setting [5]) was 50 to 100% throughout.
For the molecule `CSc1ccc(NC(=O)c2cc(NC(=O)[C@H]3[C@H](c4cc(Cl)cc(Cl)c4)C3(Cl)Cl)ccc2Cl)cc1` (relative stereo) [F149, trans-2-Chloro-5-(2,2-dichloro-3-(3,5-dichlorophenyl)cyclopropane-1-carboxamido)-N-(4-(methylthio)phenyl)benzamide], the pest or weed control at 50 µg/cm2 in test [2] (setting [4]) and in test [3] (setting [5]) was 50 to 100% each time.
Take `O=C(Nc1ccccc1F)c1cc(NC(=O)[C@H]2[C@H](c3cc(Cl)cc(Cl)c3)C2(Cl)Cl)ccc1Cl` (relative stereo) [F17, trans-2-Chloro-5-(2,2-dichloro-3-(3,5-dichlorophenyl)cyclopropane-1-carboxamido)-N-(2-fluorophenyl)benzamide]: the pest or weed control at 50 µg/cm2 in test [2] (setting [4]) and in test [3] (setting [5]) was 50 to 100% throughout.
As to `Cc1cc(N(C)C(=O)OC(C)(C)C)ccc1NC(=O)c1cc(NC(=O)[C@H]2[C@H](c3cc(Cl)cc(Cl)c3)C2(Cl)Cl)ccc1Cl` (relative stereo) [F198, trans-tert-Butyl-(4-(2-chloro-5-(2,2-dichloro-3-(3,5-dichlorophenyl)cyclopropane-1-carboxamido)benzamido)-3-methylphenyl)(methyl)carbamate], the pest or weed control at 50 µg/cm2 in test [2] (setting [4]) and in test [3] (setting [5]) was 50 to 100% throughout.
Take `O=C(Nc1ccc([N+](=O)[O-])cc1)c1cc(NC(=O)[C@H]2[C@H](c3cc(Cl)cc(Cl)c3)C2(Cl)Cl)ccc1Cl` (relative stereo) [F137, trans-2-chloro-5-(2,2-dichloro-3-(3,5-dichlorophenyl)cyclopropane-1-carboxamido)-N-(4-nitrophenyl)benzamide]: the pest or weed control at 50 µg/cm2 in test [2] (setting [4]) and in test [3] (setting [5]) was 50 to 100% in each case.
For the molecule `O=C(Nc1nc(C(F)(F)F)cs1)c1cc(NC(=O)[C@H]2[C@H](c3cc(Cl)cc(Cl)c3)C2(Cl)Cl)ccc1Cl` (relative stereo) [PF134, trans-2-Chloro-5-(2,2-dichloro-3-(3,5-dichlorophenyl)cyclopropane-1-carboxamido)-N-(4-(trifluoromethyl)thiazol-2-yl)benzamide], the pest or weed control at 50 µg/cm2 in test [2] (setting [6]) and in test [3] (setting [7]) was 50 to 100% throughout.
As for `O=C(Nc1ccc(F)cc1)c1cc(NC(=O)[C@H]2[C@H](c3cc(Cl)cc(Cl)c3)C2(Cl)Cl)c(F)cc1Cl` (relative stereo) [F48, trans-2-Chloro-5-(2,2-dichloro-3-(3,5-dichlorophenyl)cyclopropane-1-carboxamido)-4-fluoro-N-(4-fluorophenyl)benzamide], the pest or weed control at 50 µg/cm2 in test [2] (setting [4]) and in test [3] (setting [5]) was 50 to 100% in each case.
With `CN(C(=O)c1cc(NC(=O)[C@H]2[C@H](c3ccc(Cl)c(Cl)c3)C2(Cl)Cl)ccc1Cl)c1ccc(C#N)cc1F` (relative stereo) [F107, trans-2-Chloro-N-(4-cyano-2-fluorophenyl)-5-(2,2-dichloro-3-(3,4-dichlorophenyl)cyclopropane-1-carboxamido)-N-methylbenzamide], the pest or weed control at 50 µg/cm2 in test [2] (setting [4]) and in test [3] (setting [5]) was 50 to 100% throughout.
Turning to `O=C(Nc1ccccc1)c1cc(NC(=O)[C@H]2[C@H](c3cc(Cl)cc(Cl)c3)C2(Cl)Cl)c(Cl)cc1Cl` (relative stereo) [F254, trans-2,4-Dichloro-5-(2,2-dichloro-3-(3,5-dichlorophenyl)cyclopropane-1-carboxamido)-N-phenylbenzamide], the “YFM (Biological Results, rating)” value in test [1] is listed as “A (80-100)”.
As to `CC(C)(C)OC(=O)n1ccc2cc(NC(=O)c3cc(NC(=O)[C@H]4[C@H](c5cc(Cl)cc(Cl)c5)C4(Cl)Cl)ccc3Cl)ccc21` (relative stereo) [F484, tert-Butyl 5-(2-chloro-5-(trans)-(2,2-dichloro-3-(3,5-dichlorophenyl)cyclopropane-1-carboxamido)benzamido)-1H-indole-1-carboxylate], the pest or weed control at 50 µg/cm2 in test [2] (setting [6]) and in test [3] (setting [7]) was 50 to 100% in each case.
As to `CN(C(=O)c1cc(NC(=O)[C@H]2[C@H](c3cc(Cl)cc(Cl)c3)C2(Cl)Cl)ccc1Cl)c1ccc(C#N)cc1F` (relative stereo) [F106, trans-2-Chloro-N-(4-cyano-2-fluorophenyl)-5-(2,2-dichloro-3-(3,5-dichlorophenyl)cyclopropane-1-carboxamido)-N-methylbenzamide], the pest or weed control at 50 µg/cm2 in test [2] (setting [4]) and in test [3] (setting [5]) was 50 to 100% in each case.
With `COc1c(Cl)cc([C@H]2[C@H](C(=O)Nc3ccc(Cl)c(C(=O)Nc4ccc(F)cc4)c3)C2(Cl)Cl)cc1Cl` (relative stereo) [PF156, trans-2-Chloro-5-(2,2-dichloro-3-(3,5-dichloro-4-methoxyphenyl)cyclopropane-1-carboxamido)-N-(4-fluorophenyl)benzamide], the pest or weed control at 50 µg/cm2 in test [2] (setting [6]) and in test [3] (setting [7]) was 50 to 100% throughout.
In the case of `CNc1ccc(NC(=O)c2cc(NC(=O)[C@H]3[C@H](c4cc(Cl)c(OC)c(Cl)c4)C3(Cl)Cl)ccc2Cl)cc1` (relative stereo) [F182, trans-2-Chloro-5-(2,2-dichloro-3-(3,5-dichloro-4-methoxyphenyl)cyclopropane-1-carboxamido)-N-(4-(methylamino)phenyl)benzamide], the pest or weed control at 50 µg/cm2 in test [2] (setting [4]) and in test [3] (setting [5]) was 50 to 100% each time.

Values taken from patent publication US10219516B2, “Molecules having pesticidal utility, and intermediates, compositions, and processes, related thereto” (priority 2015, dated 2019).
